Values of other authors, collected in the PKSmart pharmacokinetics tables (Seal et al. 2025).
*1 amine or outer side, *2 acyl side, *3 side chain or, on linkers, in order; H or OH if unused. Where a SMILES comes first, the peptide text is derived from it. Bridges are numbered along the chain shown (N, C = ends). [ ]: non-standard residue; d: D form. The star is where a group is joined. ξ: configuration not given here. X2 = CC[C@H](C)[C@@H](N[*:1])[C@@H](O)CC(=O)OC(C(=O)C(C)C(=O)[*:2])C(C)C; ξThr(3R)(O-yl) = C[C@@H](O[*:3])C(N[*:1])C(=O)[*:2]; ξNMeY = CNC(Cc1ccc(O)cc1)C(=O)O; ξNMeL = CNC(CC(C)C)C(=O)O; Pyruvoyl = CC(=O)C(=O)*; ξL = CC(C)CC(N)C(=O)O; ξP = O=C(O)C1CCCN1

Assay: Lombardo, Berellini, Obach 2018, Drug Metab Dispos 46:1466, doi 10.1124/dmd.118.082966
Conditions: human; for MRT / Vd / clearance / half-life: in vivo, iv; for fraction unbound: plasma

Structure (SMILES)	MRT [h]	Vd [L/kg]	clearance [mL/min/kg]	half-life [h]	fraction unbound
C=CC[N+]1([C@H]2C[C@H]3[C@@H]4CC[C@H]5C[C@H](O)[C@@H](N6CCOCC6)C[C@]5(C)[C@H]4CC[C@]3(C)[C@H]2OC(C)=O)CCCC1	0.95	0.21	3.7	1.6	0.54
C[C@H]1O[C@@H](O[C@H]2[C@@H](O)C[C@H](O[C@H]3[C@@H](O)C[C@H](O[C@H]4CC[C@@]5(C)[C@H](CC[C@@H]6[C@@H]5CC[C@]5(C)[C@@H](C7=CC(=O)OC7)CC[C@]65O)C4)O[C@@H]3C)O[C@@H]2C)C[C@H](O)[C@@H]1O	170	0.44	0.043		0.066
CCCNC(C)C(=O)Nc1c(C)csc1C(=O)OC (stereo not given)	1.04	7.7	127	0.98	0.46
COc1cc2c(cc1OC)CC(=O)N(CCCN(C)C[C@H]1Cc3cc(OC)c(OC)cc31)CC2	2.69	1.66	10.3		0.28
Cn1cc[nH]c1=S	3.8	0.86	3.7	2.4	
Cc1cc(OC[C@H](O)CNC(C)C)c(C)c(C)c1O	3.7	3.6	16.2	3.1	
N=C(N)c1ccc(C(=O)NC(Cc2ccc(O)cc2)C(=O)N2CCC(OCC(=O)O)CC2)cc1 (stereo not given)	2.5	0.29		2.1	0.94
CC#C[C@]1(O)CC[C@H]2C3=C(C4=C(CC3)CC(=O)CC4)C(c3ccc(N(C)C)cc3)C[C@@]21C (stereo not given in full)	15.7	0.45	0.5	16.6	0.02
O=C(O)C1N=C(c2ccccc2)c2cc(Cl)ccc2NC1=O (stereo not given)	3	0.2	1.1	2.4	
CCOC(=O)C(CCc1ccccc1)NC(C)C(=O)N1Cc2cc(OC)c(OC)cc2CC1C(=O)O (stereo not given)			6.3	1.3	0.12
COC(=O)c1cnc2n1CCc1ccccc1C2=C1CCN(CCc2ccc(OCc3ccc4ccccc4n3)cc2)CC1	7.1	6.03	14.1	10.6	0.001
C[N+]1(C)CCC(OC(=O)C(O)(c2ccccc2)C2CCCC2)C1 (stereo not given)	0.37				
CC(=O)Oc1ccc2c3c1O[C@H]1[C@@H](OC(C)=O)C=C[C@H]4[C@@H](C2)N(C)CC[C@@]341	0.1	1.31	212	0.062	
CNC[C@H](O)CC12CCC(c3ccccc31)c1ccccc12	21.4	18.8	14.6	18.8	
CCC[C@@H]1CC(=O)N(C(CC)C(N)=O)C1 (stereo not given in full)	12.5	0.56	0.75	8.98	0.825
N#CN	0.8	0.78	17	0.43	
C=CCN1CCCC1CNC(=O)c1cc2[nH]nnc2cc1OC (stereo not given)	4	1.6	6.6	2.8	
O=C(/C=C/c1ccc(O)c(O)c1)O[C@@H]1C[C@](O)(C(=O)O)C[C@@H](OC(=O)/C=C/c2ccc(O)c(O)c2)[C@H]1O	1.05	4.82	75.8	3.17	

Structure (SMILES)	MRT [h]	Vd [L/kg]	clearance [mL/min/kg]	half-life [h]	fraction unbound
CC[C@H](C)[C@H]1NC(=O)C(NC(=O)C(CC(C)C)N(C)C(=O)C2CCCN2C(=O)C(C)=O)[C@@H](C)OC(=O)C(Cc2ccc(OC)cc2)N(C)C(=O)C2CCCN2C(=O)C(CC(C)C)NC(=O)C(C)C(=O)C(C(C)C)OC(=O)C[C@@H]1O (stereo partly drawn) (Pyruvoyl-[ξP][ξNMeL][ξThr(3R)(O-yl)][X2][ξL][ξP][ξNMeY](Me); ester 3-C)	14.5	6.95	8.05	16.6	
O=C(O)CCCC[C@H]1CCSS1	0.13	0.11	13.4	0.21	
N=C(N)N1CCC[C@@H](CNC(=O)CC(NS(=O)(=O)c2ccc3ccccc3c2)C(=O)N(CC(=O)O)C2CC2)C1 (stereo not given in full)	0.94	0.36		1.9	0.55
N#C[C@@H](O[C@@H]1O[C@H](CO[C@@H]2O[C@H](CO)[C@@H](O)[C@H](O)[C@H]2O)[C@@H](O)[C@H](O)[C@H]1O)c1ccccc1	1.83	0.21	1.88	1.23	
O=C(O)C[C@@H]1CC[C@H](NC(=O)Cc2cccs2)B(O)O1	1.64	0.29	2.94	1.34	0.67
COc1ccc2[n-]c([S@+](O)Cc3ncc(C)c(OC)c3C)nc2c1	0.9	0.2	3.85	0.83	0.03
COc1ccc(CCN(C)CCCN2CCc3cc(OC)c(OC)cc3CC2=O)cc1OC	3.2	1.6	8.4	2.8	
C[C@@H](OC[C@@]1(c2ccccc2)CC[C@]2(CCC(=O)N2)CN1)c1cc(C(F)(F)F)cc(C(F)(F)F)c1			0.38	148	0.002
Cc1nnc(C(C)C)n1C1C[C@H]2CC[C@@H](C1)N2CC[C@@H](NC(=O)C1CCC(F)(F)CC1)c1ccccc1 (stereo not given in full)	4.2			12.8	
O=C1C[C@@H](c2ccccc2)Oc2cc(O)cc(O)c21	0.47	0.8	27	0.7	
NCC1CCC(C(=O)O)CC1 (stereo not given)	2.6	0.38	2.4	2.3	
CC1(C)S[C@@H]2C(/N=C/N3CCCCCC3)C(=O)N2C1C(=O)O (stereo not given in full)	1	0.37	6.3	1.1	0.9
OCc1cc([C@@H](O)CNCCCCCCOCCOCc2c(Cl)cccc2Cl)ccc1O	1.53	2.38	25.7	2.4	0.06
CN1CC(C(=O)N[C@]2(C)O[C@@]3(O)[C@@H]4CCCN4C(=O)C(Cc4ccccc4)N3C2=O)C=C2c3cccc4[nH]cc(c34)C[C@H]21 (stereo not given in full)	4	3.6	15	2.1	0.02
Nc1nc(=O)c2ncn(CCC(CO)CO)c2[nH]1	2.4	1.1	8.4	2.1	
CC(C(=O)O)c1cccc(Oc2ccccc2)c1 (stereo not given)	2.8	0.1	0.6	2.24	0.02
COC1C(=O)C(C)C[C@H](C)/C=C/C=C/C=C(\C)[C@@H](OC)C[C@@H]2CC[C@@H](C)[C@@](O)(O2)C(=O)C(=O)N2CCCCC2C(=O)O[C@H]([C@H](C)C[C@@H]2CC[C@H](n3cnnn3)[C@H](OC)C2)CC(=O)C(C)=CC(C)[C@H]1O (stereo not given in full)	33	1.3	0.67	35	0.26
